Assay results as given in US20230390250A1, “MODULATION OF GLUCAGON-LIKE PEPTIDE 1 AND USES THEREOF” (priority 2020, published 2023).
Entries after “also recorded” stand apart in the source; their conditions may differ. Like-named read-outs stand apart in the source and are kept apart here.

How the values were obtained:
LPAR1 [1] = molecular target: T1, LPAR1 (Homo sapiens, UniProt Q92633); parameters: expressed in transfected cells; host or cells: CHO cells; conditions: cited from earlier work; for IC50: LPA-induced calcium response, CHO cells with LPAR1
Target sequence in this assay (Q92633 whole entry): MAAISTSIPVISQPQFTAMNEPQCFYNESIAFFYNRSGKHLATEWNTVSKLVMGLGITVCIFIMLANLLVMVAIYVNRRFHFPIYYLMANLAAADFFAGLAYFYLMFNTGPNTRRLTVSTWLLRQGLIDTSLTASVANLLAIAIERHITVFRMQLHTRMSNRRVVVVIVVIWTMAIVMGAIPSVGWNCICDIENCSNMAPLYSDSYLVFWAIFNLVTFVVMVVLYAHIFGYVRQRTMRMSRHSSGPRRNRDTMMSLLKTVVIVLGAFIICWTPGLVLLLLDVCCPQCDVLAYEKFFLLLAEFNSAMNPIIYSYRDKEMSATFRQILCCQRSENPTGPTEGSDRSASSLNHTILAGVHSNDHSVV

DPP4 [2] = test: DPP4 activity in GLUTag cells (fluorometric kit ab204722); format: cell-based, mouse; conditions: for effect of 18:1-LPA combined with LPAR antagonist on DPP4 activity in GLUTag cells: 2.5 uM 18:1-LPA 30 minutes, then 10 uM antagonist 2 hours; for effect of LPAR antagonist alone on DPP4 activity in GLUTag cells: 10 uM antagonist, 2 hours
Method: Briefly, GLUTag cells were grown to produce the recommended quantity needed for the assay according to the manufacturer's protocol (ab204722 Dipeptidyl peptidase IV Activity Assay Kit (Fluorometric)), and then the wells were treated in media containing charcoal-stripped FBS (10%), with either nothing (no treatment control), or vehicle control (0.05% DMSO), or 2.5 uM 18:1-LPA for 30 minutes, and then the inhibitors (as indicated in the graph of FIG. 17) were added to the vehicle wells and the 2.5 uM 18:1-LPA wells at 10 uM concentrations, as indicated on the graph (FIG. 17), for an additional 2 hours. Cells were then harvested according to the manufacturer's protocol, and lysed using reagents from the kit. Charcoal-stripped FBS was used to remove lipids, including LPA, from serum. Experiments were also carried out wherein the FBS was not stripped with charcoal, and the results were not different.
According to the manufacturer, dipeptidyl peptidase IV (DPP4) Activity Assay Kit (Fluorometric) (ab204722) is an assay where DPP4 cleaves a substrate to release a quenched fluorescent group, AMC (7-Amino-4-Methyl Coumarin), which can be easily detected at Ex/Em=360/460 nm. This assay is rapid, simple, sensitive, and reliable, as well as, suitable for high throughput activity screening of DPP4. This kit detects DPP4 activity as low as 3 ρU per well.

GLUTag cells = test: GLP-1 secretion from cultured GLUTag cells treated with LPA and/or LPAR antagonist; format: cell-based, mouse
Method: We have grown GLUTag cells in culture to test effects of various LPA species and the LPAR 1/2/3 inhibitor Ki-16425. GLUTag cells are a well characterized L-cell line derived from a mouse intestinal tumour, which have been widely used to study the regulation of GLP-1. Briefly, GLUTag cells were grown until 80-90% confluent. Complete medium, containing fetal bovine serum, was replaced with medium containing charcoal[…] dextran treated serum, which removes lipids and hormones that could interfere with testing. […] This indicates a direct inhibitory effect of LPA at physiologically relevant levels on GLP-1 secretion by L-cells, and the ability of a commercially available LPAR antagonist to prevent this.
Experimental Protocol. Briefly, GLUTag cells were grown until 70-80% confluent. Complete medium (low glucose DMEM), containing fetal bovine serum, was replaced with medium containing charcoal-dextran treated serum, which removes lipids and hormones that could interfere with testing. Cells were then treated with medium containing either DMSO as vehicle control (0.1% v/v), 2.5 μM LPA, 10 μM LPAR antagonist, or a combination of the LPA species and inhibitors. For cells treated with both LPA plus LPAR inhibitor: cells were pre-treated with LPA for 30 minutes and then 10 uM LPAR inhibitor was added to the respective wells for a further 2 hours. For cells treated with LPA only, or vehicle only, the total treatment time was 2.5 hours. For cells treated with antagonist only, the treatment time was 2 hours.

DPP4 [3] = test: DPP4 activity in serum of C57BI/6J mice; format: in vivo; conditions: for effect of antagonist on DPP4 activity in mouse serum: 30 mg/kg by gavage; for effect of 18:1-LPA combined with antagonist on DPP4 activity in mouse serum: antagonist 30 mg/kg by gavage then 50 mg/kg 18:1-LPA
LPAR4 = molecular target: T2, LPAR4 (Homo sapiens, UniProt Q99677); conditions: cited from earlier work
T2 construct: host or cells: CHO cells
T2 sequence (Q99677 whole entry, species assumed): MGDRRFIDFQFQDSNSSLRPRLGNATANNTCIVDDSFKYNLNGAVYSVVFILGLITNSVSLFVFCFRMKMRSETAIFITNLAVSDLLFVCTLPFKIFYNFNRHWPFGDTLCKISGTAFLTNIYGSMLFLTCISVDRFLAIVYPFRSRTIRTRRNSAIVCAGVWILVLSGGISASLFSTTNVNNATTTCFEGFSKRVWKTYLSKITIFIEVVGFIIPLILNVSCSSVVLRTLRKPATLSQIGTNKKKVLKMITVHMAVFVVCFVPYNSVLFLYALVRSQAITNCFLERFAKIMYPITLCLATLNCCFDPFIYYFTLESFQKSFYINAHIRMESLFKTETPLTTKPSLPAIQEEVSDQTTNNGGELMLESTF

GLP-1 = test: Circulating GLP-1 in mice injected with LPA, with or without LPAR antagonist pre-treatment; format: in vivo; conditions: for rescue of the fall in blood GLP-1 levels caused by LPA: antagonist 30 mg/kg by gavage 10 min before 50 mg/kg 18:1-LPA i.p., serum at 30 min (Examples 6, 8); for blood GLP-1 with antagonist alone versus vehicles: antagonist 30 mg/kg by gavage, no LPA
Method: We injected mice i.p. with vehicle (10% DMSO in isotonic saline) or 50 mg/kg of 1-oleoyl-2-hydroxy-LPA. Half of the mice injected with LPA were pre-injected with 5 mg/kg Ki-16425 10 minutes prior to receiving LPA. Thirty minutes later, samples of blood were taken by cardiac puncture, and circulating active GLP-1 levels in plasma were analysed by enzyme linked immunosorbent assay.
(§1) The experimental protocol was as follows: • 1. Mice were administered an LPAR antagonist drug, either by oral gavage (for BMS986020, SARI 00842, AM966, AM095, or H2L51863030), or by i.p. injection (for Ki-16425, and LPA2-antagonistl) at the doses indicated in the table below. • 2. Control mice were administered only the vehicle (a 10% DMSO solution) given via the same route as the comparison drug was administered. • 3. Ten minutes later, mice were injected i.p. either with isotonic saline, or with 50 mg/kg LPA. • 4. Thirty minutes later, mice were euthanized by cervical dyslocation, and blood was collected from the heart for preparation of serum that was stored at −80C until it was analyzed for total GLP-1 concentration by ELISA assay using a GLP-1 enzyme immunoassay kit.

LPAR3 [4] = molecular target: T3, LPAR3 (Homo sapiens, UniProt Q9UBY5); conditions: cited from earlier work
T3 sequence (Q9UBY5 1-353): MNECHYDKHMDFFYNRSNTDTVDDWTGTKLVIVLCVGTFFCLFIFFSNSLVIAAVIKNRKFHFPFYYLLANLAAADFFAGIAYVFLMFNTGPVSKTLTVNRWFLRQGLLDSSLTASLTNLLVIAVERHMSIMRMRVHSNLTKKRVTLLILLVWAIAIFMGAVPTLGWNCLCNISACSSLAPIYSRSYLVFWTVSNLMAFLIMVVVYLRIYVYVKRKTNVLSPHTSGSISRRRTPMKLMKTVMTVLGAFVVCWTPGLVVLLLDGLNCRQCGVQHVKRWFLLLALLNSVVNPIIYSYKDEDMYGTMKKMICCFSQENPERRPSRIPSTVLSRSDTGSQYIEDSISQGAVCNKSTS

LPAR5 = molecular target: T4, LPAR5 (Homo sapiens, UniProt Q9H1C0); conditions: cited from earlier work
T4 construct: host or cells: CHO cells
T4 sequence (Q9H1C0 whole entry, species assumed): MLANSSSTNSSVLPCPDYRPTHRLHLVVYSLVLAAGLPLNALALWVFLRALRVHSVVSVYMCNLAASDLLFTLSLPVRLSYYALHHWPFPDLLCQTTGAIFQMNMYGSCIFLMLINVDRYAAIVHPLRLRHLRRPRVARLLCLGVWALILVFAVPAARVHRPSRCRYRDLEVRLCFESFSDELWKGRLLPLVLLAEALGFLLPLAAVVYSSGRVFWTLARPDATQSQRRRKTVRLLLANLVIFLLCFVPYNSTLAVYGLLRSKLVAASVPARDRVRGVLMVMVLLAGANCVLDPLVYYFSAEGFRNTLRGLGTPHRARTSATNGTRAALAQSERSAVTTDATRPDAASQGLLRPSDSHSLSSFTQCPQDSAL

LPAR2 [5] = molecular target: T5, LPAR2 (Homo sapiens, UniProt Q9HBW0); conditions: cited from earlier work
T5 sequence (Q9HBW0 whole entry, species assumed): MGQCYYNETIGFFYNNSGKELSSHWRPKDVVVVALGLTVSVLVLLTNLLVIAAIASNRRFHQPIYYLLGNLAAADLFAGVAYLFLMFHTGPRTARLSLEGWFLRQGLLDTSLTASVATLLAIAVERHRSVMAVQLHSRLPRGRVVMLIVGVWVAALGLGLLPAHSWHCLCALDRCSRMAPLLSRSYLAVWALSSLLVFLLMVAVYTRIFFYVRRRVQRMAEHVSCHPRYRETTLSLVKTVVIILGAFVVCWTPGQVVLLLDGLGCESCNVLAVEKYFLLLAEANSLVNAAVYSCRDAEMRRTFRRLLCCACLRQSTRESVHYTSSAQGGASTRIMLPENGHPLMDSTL

LPAR3 [6] = molecular target: T3, LPAR3; conditions: cited from earlier work; remark: listed apart in the source
LPAR1 [7] = molecular target: T1, LPAR1; conditions: in cells; read-out: IC50 in cells for LPAR1; cited from earlier work
Target sequence in this assay (Q92633 whole entry, species assumed): as the sequence (Q92633 whole entry) above

LPAR2 [8] = molecular target: T5, LPAR2; conditions: cited from earlier work; remark: listed apart in the source
insulin secretion = conditions: prior study, Rancoule et al. 2013; cited from earlier work
DPP4 [9] = test: DPP4 activity in serum of C57BI/6J mice; format: in vivo; conditions: 50 mg/kg 18:1-LPA i.p., serum 30 minutes later
Method: Mice were injected with 5 mg/kg Ki16425 or control (10% DMSO in isotonic saline), then injected 10 mins later with 50 mg/kg 1-18:1-LPA or saline (vehicle control), then euthanized 30 minutes later for serum collection and analysis.
as §1, with “(for” for “(for BMS986020,”, “00842” for “00842, AM966, AM095,”, “AM966),” for “H2L51863030),”, “Ki-16425)” for “Ki-16425, and LPA2-antagonistl)”, “18:1-LPA.” for “LPA.”

## Cc1noc(-c2ccc(-c3ccc(CC(=O)O)cc3)cc2)c1NC(=O)O[C@H](C)c1ccccc1Cl [AM966]
LPAR1 [1]
  IC50: 17 nM
LPAR1 [1]; selectivity
  fold lower affinity for LPAR2, LPAR3 (than LPAR1): ~10 fold
DPP4 [2]
  effect of 18:1-LPA combined with LPAR antagonist on DPP4 activity in GLUTag cells: did not significantly affect
  effect of LPAR antagonist alone on DPP4 activity in GLUTag cells: did not significantly affect
GLUTag cells; 10 μM antagonist alone, 2 h
  effect of LPAR antagonist alone on GLP-1 levels: no significant effect
GLUTag cells; 10 μM antagonist plus 2.5 μM LPA
  rescue of LPA-inhibited GLP-1 secretion by LPAR antagonist: complete rescue
DPP4 [3]
  effect of antagonist on DPP4 activity in mouse serum: did not significantly affect; also recorded: lack of effect; also recorded: not significantly affected
  effect of 18:1-LPA combined with antagonist on DPP4 activity in mouse serum: did not affect
LPAR4; calcium assay, CHO cells, read-out: IC50, LPAR4
  IC50: 7700 nM
LPAR4; read-out: IC50, LPAR4, calcium release in CHO cells
  IC50: 7700 nM
GLP-1
  rescue of the fall in blood GLP-1 levels caused by LPA: completely abrogated; also recorded: Complete rescues; also recorded: restored to normal levels
  blood GLP-1 with antagonist alone versus vehicles: indistinguishable from mice treated only with the vehicles
LPAR3 [4]
  level at which LPAR3 is antagonized: low micromolar levels
LPAR5; calcium assay, CHO cells, read-out: IC50, LPAR5
  IC50: 8600 nM
LPAR5; read-out: IC50, LPAR5, calcium release in CHO cells
  IC50: 8600 nM
LPAR2 [5]; calcium assay, CHO cells, read-out: IC50, LPAR2
  IC50: 1700 nM
LPAR2 [5]; read-out: IC50, LPAR2, calcium release in CHO cells
  IC50: 1700 nM
LPAR3 [6]; calcium assay, CHO cells, read-out: IC50, LPAR3
  IC50: 1600 nM
LPAR3 [6]; read-out: IC50, LPAR3, calcium release in CHO cells
  IC50: 1600 nM

## COc1ccc(C(=O)NC2(C(=O)O)Cc3ccccc3C2)cc1OCCc1cccc(C)c1 [SAR100842]
LPAR1 [7]
  IC50: ~100 nM
LPAR2 [8]; no activity up to
  concentration up to which no activity with LPAR2: > 10,000 nM
LPAR2 [8]; no reported activity up to
  concentration up to which no reported activity on LPAR2: > 10 µM
LPAR1 [1]
  IC50: 59 to 262 nM
DPP4 [2]
  effect of 18:1-LPA combined with LPAR antagonist on DPP4 activity in GLUTag cells: did not significantly affect
  effect of LPAR antagonist alone on DPP4 activity in GLUTag cells: did not significantly affect
DPP4 [3]
  effect of antagonist on DPP4 activity in mouse serum: did not significantly affect; also recorded: lack of effect; also recorded: not significantly affected
  effect of 18:1-LPA combined with antagonist on DPP4 activity in mouse serum: did not affect
GLP-1
  rescue of the fall in blood GLP-1 levels caused by LPA: completely abrogated; also recorded: Complete rescues; also recorded: restored to normal levels
  blood GLP-1 with antagonist alone versus vehicles: indistinguishable from mice treated only with the vehicles
LPAR3 [4]; no activity up to
  concentration up to which no activity with LPAR3: > 10,000 nM
LPAR3 [4]; no reported activity up to
  concentration up to which no reported activity on LPAR3: > 10 µM

## lysophosphatidic acid [LPA]
Insulin secretion
  insulin secretion in mice injected with LPA: impaired
GLP-1; 50 mg/kg i.p., mice
  effect of LPA on circulating GLP-1 levels (words): suppressed
GLP-1; vehicle (10% DMSO)-treated mice, 50 mg/kg 18:1-LPA i.p., 30 min, serum (Example 6)
  fall in serum GLP-1 levels after LPA injection: > 50%
DPP4 [9]
  effect of LPA on DPP4 activity in mouse serum: lack of effect; also recorded: not significantly affected
